Results reported in PMC7254991, “Design and validation of fibroblast activation protein alpha targeted imaging and therapeutic agents” (Theranostics, 2020).

Target: T1, fibroblast activation protein alpha (FAP) (Homo sapiens, UniProt Q12884)
T1 construct: human FAP expressed on HEK293 cells (HEK293-hFAP)
T1 sequence (Q12884 1-760): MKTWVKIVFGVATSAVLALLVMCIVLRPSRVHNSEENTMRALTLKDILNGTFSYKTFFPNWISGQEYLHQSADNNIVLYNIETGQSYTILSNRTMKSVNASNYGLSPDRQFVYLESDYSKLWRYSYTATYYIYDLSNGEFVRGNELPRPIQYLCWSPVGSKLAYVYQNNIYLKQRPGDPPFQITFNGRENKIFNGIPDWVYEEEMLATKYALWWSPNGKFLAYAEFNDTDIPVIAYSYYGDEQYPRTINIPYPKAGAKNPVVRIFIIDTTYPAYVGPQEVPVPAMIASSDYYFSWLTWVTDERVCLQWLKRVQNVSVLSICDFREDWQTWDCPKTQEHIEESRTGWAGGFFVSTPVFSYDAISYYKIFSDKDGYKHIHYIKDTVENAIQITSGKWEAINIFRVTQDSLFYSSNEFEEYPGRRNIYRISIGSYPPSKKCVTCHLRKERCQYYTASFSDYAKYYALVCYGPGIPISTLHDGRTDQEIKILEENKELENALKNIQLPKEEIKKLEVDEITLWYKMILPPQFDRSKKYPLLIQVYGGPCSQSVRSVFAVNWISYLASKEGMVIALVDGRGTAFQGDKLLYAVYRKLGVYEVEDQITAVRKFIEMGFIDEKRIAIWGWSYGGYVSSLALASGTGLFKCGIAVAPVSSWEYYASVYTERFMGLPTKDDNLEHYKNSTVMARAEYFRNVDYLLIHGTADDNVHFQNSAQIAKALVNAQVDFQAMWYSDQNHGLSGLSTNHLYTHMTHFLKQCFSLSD
Experiment: competition (excess unlabeled FL) against FL-L1-FITC, FL-L1-S0456 and […]mTc-FL-L3 binding on HEK293-hFAP cells
Format: cell-based

C[C@H](NC(=O)c1ccnc(CN)c1)C(=O)N1CC(F)(F)C[C@H]1C#N [compound 8, FL]
competition (excess unlabeled FL) against FL-L1-FITC, FL-L1-S0456 and 99mTc-FL-L: Blocking of FL-L1-FITC related fluorescence by unlabeled FAP ligand (FL), indicated FAP mediated uptake of FL-L1-FITC in HEK293-hFAP cells
